Values of other authors as cited in PMC3166015 (Emerging Infectious Diseases, 2011).

tested on: earliest pandemic (H1N1) 2009 virus isolates; details: cited from earlier work

Structure (SMILES) | susceptibility of earliest virus isolates
CCOC(=O)C1=C[C@@H](OC(CC)CC)[C@H](NC(C)=O)[C@@H](N)C1 [Oseltamivir, oseltamivir] | sensitive
CC(=O)N[C@H]1[C@H]([C@H](O)[C@H](O)CO)OC(C(=O)O)=C[C@@H]1N=C(N)N [Zanamivir, zanamivir] | sensitive
NC12CC3CC(CC(C3)C1)C2 [amantadine] | resistant
CC(N)C12CC3CC(CC(C3)C1)C2 (stereo not shown) [rimantadine] | resistant
